Data published in doi:10.1101/2025.07.31.667081v1 (biorxiv, 2025).
Substitutions are numbered along the chain they refer to.

What was measured:
Format in all cases: cell-based
[1] = target: T1, NVL-SNAP (recombinant NVL WT; SNAP-NVL-3xFlag) (Homo sapiens, UniProt O15381); assay: in-cell UV photocrosslinking, click dye, gel fluorescence of purified NVL
T1 sequence (O15381 1-856): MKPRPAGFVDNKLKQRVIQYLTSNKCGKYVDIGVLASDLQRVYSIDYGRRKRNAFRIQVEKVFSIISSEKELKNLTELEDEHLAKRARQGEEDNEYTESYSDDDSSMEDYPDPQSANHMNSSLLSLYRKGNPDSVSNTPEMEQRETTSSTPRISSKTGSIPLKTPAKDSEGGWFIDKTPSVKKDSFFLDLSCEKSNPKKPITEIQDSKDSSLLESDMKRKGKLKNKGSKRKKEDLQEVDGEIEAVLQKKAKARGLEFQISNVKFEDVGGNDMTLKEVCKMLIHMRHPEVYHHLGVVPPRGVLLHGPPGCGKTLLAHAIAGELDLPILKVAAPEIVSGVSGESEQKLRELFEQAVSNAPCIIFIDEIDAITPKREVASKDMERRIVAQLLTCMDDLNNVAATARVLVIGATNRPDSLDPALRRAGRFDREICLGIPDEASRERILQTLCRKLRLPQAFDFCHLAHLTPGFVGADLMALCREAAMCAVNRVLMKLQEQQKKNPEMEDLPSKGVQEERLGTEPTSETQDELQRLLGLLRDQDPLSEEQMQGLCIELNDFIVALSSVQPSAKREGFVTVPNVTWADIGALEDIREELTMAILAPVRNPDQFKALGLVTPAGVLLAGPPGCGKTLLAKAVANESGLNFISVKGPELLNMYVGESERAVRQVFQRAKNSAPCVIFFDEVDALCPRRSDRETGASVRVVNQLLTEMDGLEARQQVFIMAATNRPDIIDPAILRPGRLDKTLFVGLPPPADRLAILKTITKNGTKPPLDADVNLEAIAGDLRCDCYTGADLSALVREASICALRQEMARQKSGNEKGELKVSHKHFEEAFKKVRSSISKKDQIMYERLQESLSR

[2] = target: T2, NVL-SNAP (recombinant NVL WT; SNAP-NVL-3xFlag) (Homo sapiens, UniProt O15381, R403W); assay: as above
T2 sequence (O15381 1-856 R403W): T1 sequence (O15381 1-856) with R403W

[3] = target: T1, NVL-SNAP (recombinant NVL WT; SNAP-NVL-3xFlag); assay: competition of MM514 photocrosslinking to NVL-SNAP

EC50 [1]	EC50 [2]	EC50 [3]	SMILES
0.49 µM	> 17 µM		C#CCOCCN1C(=O)c2ccccc2Sc2cc(NC(=O)c3ccc(N=[N+]=[N-])cc3)ccc21 [MM514, 4-Azido-N-(11-oxo-10-(2-(prop-2-yn-1-yloxy)ethyl)-10,11-dihydro-dibenzo[b,f][1,4]thiazepin-7-yl)benzamide]
		2.6 µM	COCCN1C(=O)c2ccccc2Sc2cc(NC(=O)c3ccc(OC)cc3)ccc21 [MM524, 4-Methoxy-N-(10-(2-methoxyethyl)-11-oxo-10,11-dihydrodibenzo[b,f][1,4]thiazepin-7-yl)benzamide]
		26 µM	COCCN1C(=O)c2ccccc2Sc2cc(NC(=O)c3ccccc3OC)ccc21 [MM691, 2-Methoxy-N-(10-(2-methoxyethyl)-11-oxo-10,11-dihydrodibenzo[b,f][1,4]thiazepin-7-yl)benzamide]
